From ChEMBL document CHEMBL2434923, “Synthesis of quinoidal molecules: strategies towards bioactive compounds with an emphasis on lapachones” (Eur J Med Chem, 2013)
Values belong to the molecule of their own block, whether it stands above or below them.

Columns and labels:
Trypanosoma cruzi [1] = assay: Antitrypanosomal activity against Trypanosoma cruzi; assay type: functional, organism-based
Trypanosoma cruzi [2] = assay: Antitrypanosomal activity against Trypanosoma cruzi after 24 hrs; assay type: functional, organism-based
[3] = Cytotoxicity against human HepG cells; assay type: functional, cell-based
KB = assay: Cytotoxicity against human KB cells; assay type: functional, cell-based
HeLa = assay: Cytotoxicity against human HeLa cells; assay type: functional, cell-based

Structure (SMILES): CC1(C)CCc2c(c3ccccc3c3nc(-c4c[nH]c5ccccc45)[nH]c23)O1
- IC50 (Trypanosoma cruzi [1]): 15400 nM

Structure (SMILES): CC1(C)CCc2c(c3ccccc3c3ncoc23)O1
- IC50 (Trypanosoma cruzi [2]): 325000 nM

Structure (SMILES): Cc1ccc(-c2nc3c([nH]2)c2c(c4ccccc43)OC(C)(C)CC2)cc1
- IC50 (Trypanosoma cruzi [1]): 15500 nM

Structure (SMILES): O=C1C(=O)c2ccccc2C2=C1CCCO2
- IC50 [3]: 920 nM
- IC50 (KB): 920 nM
- IC50 (HeLa): 920 nM

Structure (SMILES): O=C1C(=O)c2ccccc2C2=C1CCO2
- IC50 [3]: 920 nM
- IC50 (KB): 920 nM
- IC50 (HeLa): 920 nM

Continued, values first:

- IC50 (Trypanosoma cruzi [1]): 39400 nM
Structure (SMILES): CC1(C)CCc2c(c3ccccc3c3nc(-c4ccccc4)[nH]c23)O1

- IC50 (Trypanosoma cruzi [2]): 284000 nM
Structure (SMILES): CC1(C)CCc2c(c3ccccc3c3nc(-c4ccccc4)oc23)O1
